Measured values reported in patent publication US20090246481A1, “DISPERSION OF WATER-INSOLUBLE COLORANT, METHOD OF PRODUCING SUBSTANCE CONTAINING WATER-INSOLUBLE COLORANT, FINE PARTICLES OF WATER-INSOLUBLE COLORANT, DISPERSING AGENT FOR WATER-INSOLUBLE COLORANT, AND RECORDING LIQUID, INK SET, PRINTED ARTICLE, METHOD OF FORMING IMAGE AND IMAGE FORMING APPARATUS …” (FUJIFILM Corporation, priority 2008, published 2009).

Assay: pKa of monomers by neutralization titration
Assay type: physicochemical
Settings: tetrahydrofuran/water=6:4
Description: The pKa value of each monomer was calculated in accordance with a neutralization titration method in a system of tetrahydrofuran/water=6:4 by means of an automatic titrator COM-2500 (trade name) manufactured by Hiranuma Sangyo Co., Ltd.

SMILES: C=C(C)C(=O)O [Methacrylic acid]
- pKa: 3.98

SMILES: C=C(C)C(=O)NS(C)(=O)=O [Monomer 1]
- pKa: 3.96
